What was measured:
[1] = test system: RAD52 OB mutant (K102A/K103A/K169A/R173A); test: FRET-based inhibition of ssDNA binding, outer binding defective RAD52 mutant; design: species or system human; conditions: for fold lower IC50 (increased efficiency) against OB mutant compared to IB mutant: Z56: wild type and IB mutant within the fitting error
Method: Proteins: The 6×His-tagged human RAD52 proteins (wild type and mutants) and untagged human RPA were expressed and purified as previously described in (Hengel S R, eLife. 2016; 5; Grimme J M, et al., Nucleic Acids Res. 2010; 38(9):2917-30; and Henricksen L A, et al., The Journal of biological chemistry. 1994; 269(15):11121-32). RPA and RAD52 protein concentrations were determined by measuring absorbance at 280 nm using extinction coefficients of 88,830 M^−1 cm^−1 and 40,470 M^−1 cm^−1, respectively.
FRET-based DNA binding and inhibition assays: FRET-based that monitor the RAD52-ssDNA, RPA-ssDNA and RAD52-RPA-ssDNA binding were carried out as previously described (Hengel S R, eLife. 2016; 5; Grimme J M, et al., Nucleic Acids Res. 2010; 38(9):2917-30; and Grimme J M, Spies M. FRET-based assays to monitor DNA binding and annealing by Rad52 recombination mediator protein. Methods in molecular biology (Clifton, NJ). 2011; 745:463-83) using Cary Eclipse Spectrofluorimeter (Agilent) at 25° C., in 5 mm quartz cuvettes, and in buffer containing 30 mM Tris-Acetate (pH 7.5) and 1 mM DTT. Cy3 dye was excited at 530 nm and its emission was monitored at 565 nm. Emission of Cy5 acceptor fluorophore excited through the energy transfer from Cy3 donor is monitored at 660 nm simultaneously with emission of Cy3 dye. Both the excitation and the emission slits were set to 10 nm. All experiments were carried out using 1 nM (molecules) Cy3-dT30-Cy5 ssDNA. The optimal concentrations of the RAD52 (6 nM) and RPA (1 nM) proteins were selected by titrating the respective protein into 1 nM Cy3-dT30-Cy5 solution, and chosen based on the largest separation of the FRET values corresponding to the protein bound and free DNA.
The inhibition of the RAD52-ssDNA, RPA-ssDNA and RAD52-RPA-ssDNA complexes was evaluated by titrating each compound to the respective complex, measuring Cy3 and Cy5 fluorescence, and calculating FRET as previously described (Hengel, S. R., et al., eLife, 5).
Spectral properties of many compounds overlapped with the Cy3 and Cy5 fluorescence. To correct the calculated FRET values for the compound signal, the fluorogenic compounds were titrated into buffer and into solution of 1 nM Cy3-dT30-Cy5. For all tested compounds, the change in the signal in the Cy3 and Cy5 channels with and without Cy3/Cy5-labeled DNA present was the same. […] To account for the dye fluorescence, for each compound concentration, the apparent change in FRET of the ssDNA in the presence the compound was subtracted from the respective FRET signal of the RAD52-ssDNA, RPA-ssDNA or RAD52-ssDNA-RPA complex at the same inhibitor concentration. The IC50 values were calculated by fitting the corrected FRET data to the four-parameter dose response model using GraphPad Prism. […]

EUFA423F HA cells = test: CellTiter-Glo cell viability, BRCA2-complemented cells; assay type: cell-based, human; conditions: yes/no
Source text: Cell lines: EUFA423F cells that are derived from a Fanconi Anemia patient with complementation group D1 and have biallelic mutations (7691 insAT and 9900 insA) in BRCA2 that result in two different truncated forms of BRCA2 (Howlett N G, et al., Science (New York, NY). 2002; 297(5581):606-9) and its counterpart complemented with expression vector for full-length BRCA2 (EUFA HA) were a generous gift from Dr. Simon Powell, Molecular Biology Program, Radiation Oncology, Sloan-Kettering Cancer Center, New York, NY).
Cell proliferation assay: Selective toxicity of the compounds towards human BRCA2 deficient cells was tested in EUFA423F and its complement EUFA423F HA using CellTiter-Glo® Luminescent Cell Viability Assay (Promega, Madison, WI). The cell lines were maintained in DMEM (Gibco/ThermoFisher Scientific, Waltham, MA) supplemented with 10% FBS and 10 mM HEPES (Gibco/ThermoFisher Scientific, Waltham, MA). EUFA423F HA cells were routinely supplemented with G418 in order to maintain the BRCA2 expression plasmid. Both cell lines were seeded in sterile tissue culture treated, white opaque 384-well plates (Perkin Elmer Inc., Waltham, MA) 3000 cells/well for EUFA423F HA and 2500 cells/well for EUFA423F) and allowed to adhere for 24 hours. Compounds dissolved in DMSO were added in the concentration range of 0-100 μM. Controls were treated with equivalent DMSO volumes. The cells were treated with compounds for 72 hours (to ensure that all cells experienced at least two S-phases). Post treatment, the cells were washed, treated with the CellTiter-Glo® reagent was added and the plate was analyzed as using a Gen5 (ver2.1) luminosity plate reader. The luminescence that reports on ATP generation by the surviving cells was normalized for the DMSO treated control as 100%. The normalized luminescence (average±standard deviation for at least three independent measurements obtained with different cell passages) was plotted in GraphPad Prism as a function of compound concentration. Clonogenic Survival: EUFA423F and EUFA423F HA cells were seeded in a 96 well plate. Compounds dissolved in DMSO were added to final concentrations of 0, 50, and 100 μM for the compound of Example 8 and the compound of Example 1, and 0, 5, and 10 μM for the compounds of Examples 2-7. The cells were treated with compounds for 72 hours. Post treatment, cell cultures were harvested by collecting all non-adherent cells in the well, trypsinization of all adherent cells, combining, pelleting and then resuspending in fresh media. Cultures treated with DMSO only were subsequently counted using a hemocytometer and plated at a density of 2000, 200 and 20 cells per well in 6-well culture plates, equal volumes of cultures were plated each inhibitor concentration. Each treatment and cell density conditions for both cell lines were plated in triplicate. After expanding the colonies for a period of 8 days, cultures were fixed with a solution of 70% ethanol and crystal violet for clonogenic survival analysis. Pictures of individual wells were taken using GelCount (Version 1.3.0.4) by Oxford Optronix (Abingdon UK). A colony had to contain at least 50 cells to be counted. The number of surviving colonies following treatment are presented as a percentage of number of colonies in the experiment where the cells were treated with DMSO only.

| SMILES | inhibition of ssDNA binding to OB mutant RAD52 [1] | fold lower IC50 (increased efficiency) against OB mutant compared to IB mutant [1] [fold] | toxicity towards EUFA423 HA (BRCA2-complemented cells) (EUFA423F HA cells) |
| --- | --- | --- | --- |
| O=C(Cn1cccc([N+](=O)[O-])c1=O)c1c[nH]c2ccccc12 [Example 1] | able to inhibit | 6 | yes |
| COc1ccccc1NS(=O)(=O)c1cc(C(=O)O)ccc1C [Example 8] | able to inhibit | 6 | no |
